Experimental findings from patent US10774092B2 (SALK INSTITUTE FOR BIOLOGICAL STUDIES, priority 2014, dated 2020) are described below.

As usually defined, the IC50 is the concentration at which inhibition is half-maximal.

Sequence of ULK1 (O75385 whole entry, looked up): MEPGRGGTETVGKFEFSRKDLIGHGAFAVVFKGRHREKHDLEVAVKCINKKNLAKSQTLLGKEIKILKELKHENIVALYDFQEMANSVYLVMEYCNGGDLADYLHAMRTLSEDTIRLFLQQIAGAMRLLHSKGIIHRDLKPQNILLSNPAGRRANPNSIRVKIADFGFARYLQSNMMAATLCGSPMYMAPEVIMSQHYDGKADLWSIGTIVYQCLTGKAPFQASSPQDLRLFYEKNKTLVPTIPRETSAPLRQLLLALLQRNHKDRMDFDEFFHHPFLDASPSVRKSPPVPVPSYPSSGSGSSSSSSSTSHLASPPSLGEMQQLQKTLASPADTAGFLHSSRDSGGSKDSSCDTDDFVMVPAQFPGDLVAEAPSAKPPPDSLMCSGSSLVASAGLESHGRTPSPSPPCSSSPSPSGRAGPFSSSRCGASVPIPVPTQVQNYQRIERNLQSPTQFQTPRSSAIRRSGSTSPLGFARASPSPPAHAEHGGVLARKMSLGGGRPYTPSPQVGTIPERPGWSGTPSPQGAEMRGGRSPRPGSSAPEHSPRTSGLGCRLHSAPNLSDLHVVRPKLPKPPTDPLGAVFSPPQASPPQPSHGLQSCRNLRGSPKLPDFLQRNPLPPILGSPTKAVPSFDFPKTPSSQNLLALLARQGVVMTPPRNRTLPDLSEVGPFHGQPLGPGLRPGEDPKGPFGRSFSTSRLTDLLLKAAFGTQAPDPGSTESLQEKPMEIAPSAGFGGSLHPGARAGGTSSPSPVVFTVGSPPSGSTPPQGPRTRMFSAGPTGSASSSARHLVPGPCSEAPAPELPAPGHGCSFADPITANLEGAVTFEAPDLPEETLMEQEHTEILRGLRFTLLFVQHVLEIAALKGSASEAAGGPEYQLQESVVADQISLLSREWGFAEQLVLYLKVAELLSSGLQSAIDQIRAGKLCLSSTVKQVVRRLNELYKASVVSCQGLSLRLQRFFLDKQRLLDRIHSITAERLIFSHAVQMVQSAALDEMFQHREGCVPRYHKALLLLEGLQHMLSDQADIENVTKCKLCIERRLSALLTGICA

One experiment addresses ULK1 (Homo sapiens, UniProt O75385). As to the kind of experiment: ULK1 inhibition assay (Table 1). Format: biochemical. The settings on record: * = tested as a mixture of regioisomers.
Take `O=c1[nH]c2ccc(Nc3ncc(Br)c(NC4CC4)n3)cc2[nH]1` [Example 236, 5-((5-bromo-4-(cyclopropylamino)pyrimidin-2-yl)amino)-1,3-dihydro-2H-benzo[d]imidazol-2-one]: the IC50 is under 200 nM.
Still for that read-out and setting: as for `CNS(=O)(=O)c1ccccc1Nc1nc(Nc2cc(OC)c(OC)c(OC)c2)ncc1Br` [Example 237, 2-((5-bromo-2-((3,4,5-trimethoxyphenyl)amino)pyrimidin-4-yl)amino)-N-methylbenzenesulfonamide], the figure is 200 to 2000 nM; as for `CNC(=O)c1ccccc1Oc1ccnc(Nc2cc(OC)c(OC)c(OC)c2)n1` [Example 239, N-methyl-2-((2-((3,4,5-trimethoxyphenyl)amino)pyrimidin-4-yl)oxy)benzamide], over 2000 nM.
The same measure, in the same setting: as for `Oc1ccc(CCNc2ncc(C(F)(F)F)c(NC3CC3)n2)cc1` [Example 246, 4-(2-((4-(cyclopropylamino)-5-(trifluoromethyl)pyrimidin-2-yl)amino)ethyl)phenol], the figure is 200 to 2000 nM; as for `C[C@@H]1COCCN1c1nc(Nc2ccc3c(c2)CCC(=O)N3)ncc1C(F)(F)F` [Example 247, (R)-6-((4-(3-methylmorpholino)-5-(trifluoromethyl)pyrimidin-2-yl)amino)-3,4-dihydroquinolin-2(1H)-one], under 200 nM.
`FC1(F)Oc2ccc(Nc3ncc(C(F)(F)F)c(NC4CC4)n3)cc2O1` [Example 258, N4-cyclopropyl-N2-(2,2-difluorobenzo[d][1,3]dioxol-5-yl)-5-(trifluoromethyl)pyrimidine-2,4-diamine]: the IC50 was over 2000 nM.
Still for that read-out and setting: the value for `CCC(=O)c1ccccc1Oc1nc(Nc2cc(OC)c(OC)c(OC)c2)ncc1Br` [Example 260, 1-(2-((5-bromo-2-((3,4,5-trimethoxyphenyl)amino)pyrimidin-4-yl)oxy)phenyl)propan-1-one] was under 200 nM; that for `FC(F)(F)c1cnc(NCc2cccc3ccccc23)nc1NC1CC1` [Example 262, N4-cyclopropyl-N2-(naphthalen-1-ylmethyl)-5-(trifluoromethyl)pyrimidine-2,4-diamine] was over 2000 nM; that for `FC(F)(F)c1cnc(Nc2ccc3ncccc3c2)nc1NC1CC1` [Example 264, N4-cyclopropyl-N2-(quinolin-6-yl)-5-(trifluoromethyl) pyrimidine-2,4-diamine] was under 200 nM.
Same read-out and setting: as for `O=C1CCc2cc(Nc3ncc(C(F)(F)F)c(Nc4cc(C5CCC5)[nH]n4)n3)ccc2N1` [Example 271, 6-((4-((5-cyclobutyl-1H-pyrazol-3-yl)amino)-5-(trifluoromethyl)pyrimidin-2-yl)amino)-3,4-dihydroquinolin-2(1H)-one], the figure is under 200 nM.
Consider `FC(F)(F)c1cnc(Nc2cnc3ccccc3c2)nc1NC1CC1` [Example 275, N4-cyclopropyl-N2-(quinolin-3-yl)-5-(trifluoromethyl) pyrimidine-2,4-diamine], for which the IC50 was under 200 nM.
Same read-out and setting: the value for `O=C1CCc2cc(Nc3ncc(C(=O)O)c(NC4CC4)n3)ccc2N1` [Example 286, 4-(cyclopropylamino)-2-((2-oxo-1,2,3,4-tetrahydroquinolin-6-yl)amino)pyrimidine-5-carboxylic Acid] was over 2000 nM.
Still for that read-out and setting: the value for `COC(=O)Nc1ccccc1Oc1nc(Nc2cc(OC)c(OC)c(OC)c2)ncc1Br` [Example 296, Methyl (2-((5-bromo-2-((3,4,5-trimethoxyphenyl)amino)pyrimidin-4-yl)oxy)phenyl)carbamate] was under 200 nM; that for `FC(F)(F)c1cnc(Nc2ccc3nc[nH]c3c2)nc1Nc1cc(C2CCC2)[nH]n1` [Example 297, N2-(1H-benzo[d]imidazol-6-yl)-N4-(5-cyclobutyl-1H-pyrazol-3-yl)-5-(trifluoromethyl)pyrimidine-2,4-diamine] was under 200 nM; that for `COc1cc(Nc2ncc(Br)c(Oc3ccccc3C(F)(F)F)n2)cc(OC)c1OC` [Example 299, 5-bromo-4-(2-(trifluoromethyl)phenoxy)-N-(3,4,5-trimethoxyphenyl)pyrimidin-2-amine] was under 200 nM.
Consider `O=C1CCCc2cc(Nc3ncc(C(F)(F)F)c(NC4CC4)n3)ccc21` [Example 301, 6-((4-(cyclopropylamino)-5-(trifluoromethyl)pyrimidin-2-yl)amino)-3,4-dihydronaphthalen-1(2H)-one], for which the IC50 is under 200 nM.
For `COc1cc(Nc2ncc(Br)c(Nc3ccccc3CO)n2)cc(OC)c1OC` [Example 303, (2-((5-bromo-2-((3,4,5-trimethoxyphenyl)amino)pyrimidin-4-yl)amino)phenyl)methanol], the IC50 was under 200 nM.
`Nc1ccc(Nc2ncc(C(F)(F)F)c(NC3CC3)n2)cc1` [Example 304a, N2-(4-aminophenyl)-N4-cyclopropyl-5-(trifluoromethyl)pyrimidine-2,4-diamine]: the IC50 was under 200 nM.
The same measure, in the same setting: the value for `CC(C)(C)OC(=O)NCCCNc1nc(Nc2ccc3c(c2)CCC(=O)N3)ncc1C(F)(F)F` [Example 310, Tert-butyl (3-((2-((2-oxo-1,2,3,4-tetrahydroquinolin-6-yl)amino)-5-(trifluoromethyl)pyrimidin-4-yl)amino)propyl)carbamate] was under 200 nM; that for `O=C(C1CC1)N(C(=O)C1CC1)c1ccc(Nc2ncc(C(F)(F)F)c(NC3CC3)n2)cc1` [Example 311, N-(cyclopropanecarbonyl)-N-(4-((4-(cyclopropylamino)-5-(trifluoromethyl)pyrimidin-2-yl)amino)phenyl)cyclopropanecarboxamide] was under 200 nM; that for `O=C(Nc1ccc(Nc2ncc(C(F)(F)F)c(NC3CC3)n2)cc1)C1CC1` [Example 312, N-(4-((4-(cyclopropylamino)-5-(trifluoromethyl)pyrimidin-2-yl)amino)phenyl)cyclopropanecarboxamide] was under 200 nM.

Another experiment has as its system PC3 prostate-cancer cell line stably expressing GFP-LC3. In words: GFP-LC3 puncta high-throughput microscopy. It is filed as cell-based, human. Particulars: control siRNA cells, 1 μM mTOR catalytic inhibitor for 4 hr. The protocol:
At 48 hr after RNAi transfection, the cells were treated with 1 μM of the catalytic mTOR inhibitors AZD8055 or INK128 for 4 hr and assessed for the presence of GFP-LC3 puncta. The average number of GFPLC3 puncta and SD for each siRNA and drug treatment are shown. SRC, c-Src; c-Src kinase, CSK.
(§1) To test the ability of compound 14 to block autophagy and cell survival, initial studies were performed in A549 lung cancer cells, which are highly sensitive to mTOR inhibition. […] Next, we genetically assessed the requirement for ULK1 versus other kinases inhibited by compound 14 to induce autophagy after pharmacological mTOR inhibition. A robust high-throughput microscopy method for quantifying GFP-LC3 puncta was established using a PC3 prostate-cancer cell line stably expressing a GFP-LC3 construct. Using this assay, we performed a focused RNAi analysis of the top 20 kinases identified in the DiscovRx screen as best binding to compound 14. […] Strikingly, of the 18 kinases tested, only one kinase siRNA, ULK1, nearly fully abolished the LC3 puncta induced by the mTOR inhibitors (FIG. 9D).
Take `COc1ccc(-c2ccc3c(N4CCOC[C@@H]4C)nc(N4CCOC[C@@H]4C)nc3n2)cc1CO` [AZD8055, (5-(2,4-bis((S)-3-methylmorpholino)pyrido[2,3-d]pyrimidin-7-yl)-2-methoxyphenyl)methanol, reference compound]: the “induction in GFP-LC3 puncta formation” value was 2 fold.
For `CC(C)n1nc(-c2ccc3oc(N)nc3c2)c2c(N)ncnc21` [INK128, 3-(2-amino-5-benzoxazolyl)-1-(1-methylethyl)-1H-pyrazolo[3,4-d]pyrimidin-4-amine], the “induction in GFP-LC3 puncta formation” value is recorded as 2 fold.

The test system of the next experiment is A549 lung cancer cells. As to the kind of experiment: Cyto-ID autophagy dye detection of autophagic vacuoles. It is filed as cell-based. The settings on record: 5-μM 6965 with AZD8055. The protocol: FIG. 9E is an immunoflourescence imaging of A549 cells treated in the presence or absence of 5 μM compound 14 for 2 hr followed by 4 μM of the mTOR catalytic inhibitor AZD8055 for 24 hr. Autophagic vacuoles were detected using the Cyto-ID autophagy detection kit and are visualized in green, while cell nuclei were counterstained by DAPI and are visualized in blue.
as §1
Turning to `CNC(=O)c1ccccc1Nc1nc(Nc2cc(OC)c(OC)c(OC)c2)ncc1Br` [compound 14, 2-(5-bromo-2-(3,4,5-trimethoxyphenylamino)pyrimidin-4-ylamino)-N-methylbenzamide], the “effect on AZD8055-induced autophagy (Cyto-ID dye accumulation)” value is reported as “strongly suppressed”.

The experiment is the same for the next values; noted with them: AZD8055 alone.
Turning to `COc1ccc(-c2ccc3c(N4CCOC[C@@H]4C)nc(N4CCOC[C@@H]4C)nc3n2)cc1CO` [AZD8055, (5-(2,4-bis((S)-3-methylmorpholino)pyrido[2,3-d]pyrimidin-7-yl)-2-methoxyphenyl)methanol, reference compound], the “autophagy induction (Cyto-ID dye accumulation)” value is on record as “induced robust autophagy”.

For a further experiment, the system named is endogenous ULK1 activity. As to the kind of experiment: mobility shift of endogenous Beclin1 and Atg13 (endogenous ULK1 activity) in MEFs. It is filed as cell-based, mouse. Particulars: WT MEFs, 10 μM co-treatment, 1 hr. The protocol: FIG. 7D: WT or Ulk1/Ulk2 double knockout mouse embryonic fibroblasts (MEFs) were treated with fresh media (Dulbecco's modified Eagle medium [DMEM] containing 10% FBS) containing 1-μM INK128, 1-μM AZD8055, or DMSO or with starvation media (EBSS) in the presence or absence of 10 μM compound 14. Cellular lysates were isolated after 1 hr of treatment and immunoblotted with the indicated antibodies. Asterisk denotes non-specific band.
We next examined whether compound 14 inhibits endogenous ULK1 activity. To activate endogenous ULK1, we treated MEFs with either amino acid starvation media (Earle's balanced salt solution [EBSS]) or the mTOR ATP-competitive inhibitors INK128 or AZD8055. In WT MEFs, we observed a mobility shift in endogenous Beclin1 and Atg13 in response to EBSS starvation media or the mTOR catalytic inhibitors, which was abolished in Ulk1/2-deficient MEFs (FIG. 7D). […] In certain embodiments, the mobility shifts observed in endogenous Beclin1 and Atg13 induced by mTOR inhibitors and starvation media reflect phosphorylation of endogenous Beclin1/Atg13 by endogenous ULK1/2 as they only occur in WT but not Ulk1/2-deficient MEFs.
`CNC(=O)c1ccccc1Nc1nc(Nc2cc(OC)c(OC)c(OC)c2)ncc1Br` [compound 14, 2-(5-bromo-2-(3,4,5-trimethoxyphenylamino)pyrimidin-4-ylamino)-N-methylbenzamide]: the “EBSS and mTOR-inhibitor induced mobility shift in Beclin1 and Atg13” value is given as “inhibited”.
